These results are taken from the supplement of paper PMC11208160.
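Further: IS621 recombinase and bridge RNA in Escherichia coli cells.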

A short description of the data set: recombinant barcode read abundance after kanamycin selection (control-corrected) (log10(CPM+1)); higher = more efficient recombination; sequences stand for … in AGTGCAGAGAAAATCGGCCAGTTTTCTCTGCCTGCAGTCCGCATGCCGT…AGATTTATGCAGCGGACTGCCTTTCTCCCAAAGTGATAAACCGGACAGTATCATGGACCGGTTTTCCCGGTAATCCGTATTTGCAAGGTTGGTTTCACT; site = the 11-nt target. Put shortly:
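In E. coli, a pooled library matched targets to IS621 bridge RNA target-binding loops and was introduced alongside a donor plasmid. Cells went onto chloramphenicol/ampicillin/kanamycin with 0.1 mM IPTG or onto chloramphenicol/ampicillin LB agar as control, in duplicate. Recombination efficiency, from recombinant-junction barcodes as counts per million, is averaged and control-corrected. It is reported as log10(CPM+1).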
“TACATCCCTTGGGTTCTAACCTGTTGCCA (site TACATCCCTCG)”: the “recombinant barcode read abundance (log10)” value was 0.0234.

For the sequence “TACATCCCTTGGGTTCTAACCTGTTGCCA (site TACATCCCTGG)”, the “recombinant barcode read abundance (log10)” value is 0.0594. As to “TACATCCCTTGGGTTCTAACCTGTTGCCA (site TACATCCCTTG)”, the “recombinant barcode read abundance (log10)” value came out at 0.358. Turning to “TACATTCCTTGGGTTCTAACCTGTTGCCT (site AACATTCCTAG)”, the “recombinant barcode read abundance (log10)” value worked out at 0.0286. As to “TACATTCCTTGGGTTCTAACCTGTTGCCT (site CACATTCCTAG)”, the “recombinant barcode read abundance (log10)” value amounted to 0.0666. Then “TACATTCCTTGGGTTCTAACCTGTTGCCT (site GACATTCCTAG)”, with 0.179; and “TACATTCCTTGGGTTCTAACCTGTTGCCT (site TACATTCCTAG)”, with 0.156. Turning to “TACCCTACTTGGGTTCTAACCTGTTGCCT (site AACCCTACTAG)”, the “recombinant barcode read abundance (log10)” value was determined as 0.0271. In the case of “TACCCTACTTGGGTTCTAACCTGTTGCCT (site CACCCTACTAG)”, the “recombinant barcode read abundance (log10)” value came out at 0.0188. Then “TACCCTACTTGGGTTCTAACCTGTTGCCT (site GACCCTACTAG)”, with 0.0371; and “TACCCTACTTGGGTTCTAACCTGTTGCCT (site TACCCTACTAG)”, with 0.628.

Regarding “TACCGGCCTTGGGTTCTAACCTGTTGCCT (site TAACGGCCTAG)”, the “recombinant barcode read abundance (log10)” value turned out to be 0.288. In the case of “TACCGGCCTTGGGTTCTAACCTGTTGCCT (site TACCGGCCTAG)”, the “recombinant barcode read abundance (log10)” value was found to be 0.141. On to “TACCGGCCTTGGGTTCTAACCTGTTGCCT (site TAGCGGCCTAG)”, for which the “recombinant barcode read abundance (log10)” value was 0.176. Regarding “TACCGGCCTTGGGTTCTAACCTGTTGCCT (site TATCGGCCTAG)”, the “recombinant barcode read abundance (log10)” value was found to be 0.166. Regarding “TACCTAGCTTGGGTTCTAACCTGTTGCGT (site TACCTAGCTAC)”, the “recombinant barcode read abundance (log10)” value was 1.3. For the sequence “TACCTAGCTTGGGTTCTAACCTGTTGCGT (site TACCTATCTAC)”, the “recombinant barcode read abundance (log10)” value came out at 0.433.

Turning to “TACCTATCTTGGGTTCTAACCTGTTGCCT (site TACCTATCTAG)”, the “recombinant barcode read abundance (log10)” value was found to be 1.11. In the case of “TACCTATCTTGGGTTCTAACCTGTTGCCT (site TCCCTATCTAG)”, the “recombinant barcode read abundance (log10)” value stood at 0.00692. As to “TACCTATCTTGGGTTCTAACCTGTTGCCT (site TGCCTATCTAG)”, the “recombinant barcode read abundance (log10)” value was determined as 0.0136. Consider “TACCTATCTTGGGTTCTAACCTGTTGCCT (site TTCCTATCTAG)”, for which the “recombinant barcode read abundance (log10)” value amounted to 0.429. With “TACCTGACTTGGGTTCTAACCTGTTGCCT (site TACCAGACTAG)”, the “recombinant barcode read abundance (log10)” value is 0.0067. Regarding “TACCTGACTTGGGTTCTAACCTGTTGCCT (site TACCCGACTAG)”, the “recombinant barcode read abundance (log10)” value was 0.355.

As to “TACCTGACTTGGGTTCTAACCTGTTGCCT (site TACCGGACTAG)”, the “recombinant barcode read abundance (log10)” value worked out at 0.106.

Consider “TACCTGACTTGGGTTCTAACCTGTTGCCT (site TACCTGACTAG)”, for which the “recombinant barcode read abundance (log10)” value was 0.688.

Turning to “TACGCCTCTTGGGTTCTAACCTGTTGCCT (site AACGCCTCTAG)”, the “recombinant barcode read abundance (log10)” value worked out at 0.0117. “TACGCCTCTTGGGTTCTAACCTGTTGCCT (site CACGCCTCTAG)”: the “recombinant barcode read abundance (log10)” value worked out at 0.164. Consider “TACGCCTCTTGGGTTCTAACCTGTTGCCT (site GACGCCTCTAG)”, for which the “recombinant barcode read abundance (log10)” value turned out to be 0.249. As to “TACGCCTCTTGGGTTCTAACCTGTTGCCT (site TACGCCTCTAG)”, the “recombinant barcode read abundance (log10)” value stood at 1.29.

As to “TACGTGTCTTGGGTTCTAACCTGTTGCCT (site TAAGTGTCTAG)”, the “recombinant barcode read abundance (log10)” value was 0.408. Then “TACGTGTCTTGGGTTCTAACCTGTTGCCT (site TACGTGTCTAG)”, with 2.4; and “TACGTGTCTTGGGTTCTAACCTGTTGCCT (site TAGGTGTCTAG)”, with 0.0617.
